Drawing on PubChem BioAssay AID504329 (Southern Research Specialized Biocontainment Screening …, 2011), this text covers IC50 for two compounds.

pIC50: −log10 of the molar value.

The assay concerns NS1A functional cell-based assay, percent inhibition. The assay can be described thus: H1N1 influenza NS1A inhibitors, functional cell based assay (AID 504329).

For orientation: pIC50 means the negative decadic logarithm of the IC50, by convention in mol/L. Consider `C#CCOCCOCCOCCNc1nc(N2CCN(C(=O)CCCCCCCCCCNC(=O)[C@H]([C@@H](C)CC)n3cc(CCCCN=C(N)N)nn3)CC2)nc(N2CCN(C(=O)CCCCCCCCCCNC(=O)[C@H](CO)n3cc(CCCCCN)nn3)CC2)n1`, for which the pIC50 is 4.79.

Consider `CN(C)c1ccnc2c[cH-]cc12.[Fe].c1ccc(-[c-]2[c-](-c3ccccc3)[c-](-c3ccccc3)[c-](-c3ccccc3)[c-]2-c2ccccc2)cc1` (configuration not stated), for which the pIC50 was 5.03.
